The source of these data is patent US8975398B2, “NAMPT inhibitors” (AbbVie Inc., priority 2012, dated 2015).

One assay deals with NAMPT (Homo sapiens, UniProt P43490). The experiment in a line: Time-Resolved Fluorescence Resonance Energy Transfer (TR-FRET) Binding Assay of NAMPT with PRPP. The settings on record: 2 nM NAMPT, 2 nM probe, 200 uM PRPP and 2.5 mM ATP, equilibrated 16 hours. The procedure, abridged:
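Final mix: 2 nM NAMPT, 2 nM probe, 1 nM Tb-anti-His antibody, 200 uM PRPP, 2.5 mM ATP, 2% DMSO in 1× assay buffer. Equilibrated 16 hours before TR-FRET read, allowing possible enzymatic modification of compounds.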
Background: In TR-FRET formats the signal depends on donor and acceptor labels being close together.

The target of assay [1] is NAMPT (human, recombinant, C-terminally His-tagged) (Homo sapiens, UniProt P43490). The experiment in a line: Time-Resolved Fluorescence Resonance Energy Transfer (TR-FRET) Binding Assay of NAMPT. The settings on record: 6.8 nM NAMPT, 200 nM probe, equilibrated 3 hours, absence of substrates. Put shortly: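 Recombinant C-terminally His-tagged human NAMPT (6.8 nM) incubated 3 h at room temperature with 200 nM Oregon Green 488–labelled nicotinamide-competitive probe and 1 nM Tb-anti-His antibody in HEPES pH 7.5, 2% DMSO. TR-FRET ratio Em520/Em495 normalized to controls; IC50 from four-parameter logistic fit.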
Chain of NAMPT (human, recombinant, C-terminally His-tagged) (P43490 whole entry): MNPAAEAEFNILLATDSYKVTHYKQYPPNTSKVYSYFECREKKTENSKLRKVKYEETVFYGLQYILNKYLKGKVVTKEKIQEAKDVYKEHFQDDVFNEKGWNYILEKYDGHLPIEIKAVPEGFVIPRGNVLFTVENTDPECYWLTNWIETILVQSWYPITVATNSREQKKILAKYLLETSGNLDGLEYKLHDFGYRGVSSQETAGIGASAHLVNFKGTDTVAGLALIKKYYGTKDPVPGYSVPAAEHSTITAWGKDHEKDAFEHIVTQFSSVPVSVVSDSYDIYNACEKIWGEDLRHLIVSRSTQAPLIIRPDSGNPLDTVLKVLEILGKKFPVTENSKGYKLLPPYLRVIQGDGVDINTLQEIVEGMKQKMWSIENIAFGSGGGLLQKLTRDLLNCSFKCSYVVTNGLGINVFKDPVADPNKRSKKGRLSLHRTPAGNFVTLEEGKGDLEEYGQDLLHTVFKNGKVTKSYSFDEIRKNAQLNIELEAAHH

Chain of NAMPT (P43490 whole entry): as above

Turning to `Cc1ncccc1N1CC(C(=O)Nc2ccc(C3CCN(C(=O)CN4CCN(C)CC4)CC3)cc2)C1` [Example 173, N-(4-{1-[(4-methylpiperazin-1-yl)acetyl]piperidin-4-yl}phenyl)-1-(2-methylpyridin-3-yl)azetidine-3-carboxamide], the values for the half-inhibitory concentration (IC50) (at NAMPT; in assay [1]) were 154 nM and 524 nM, respectively.

In the case of `Cc1ncccc1N1CC(C(=O)Nc2ccc(C3CCN(C(=O)[C@@H]4CCC(=O)N4)CC3)cc2)C1` [Example 174, 1-(2-methylpyridin-3-yl)-N-{4-[1-(5-oxo-L-prolyl)piperidin-4-yl]phenyl}azetidine-3-carboxamide], the IC50 (in general, the concentration at which inhibition is half-maximal) at NAMPT worked out at 158 nM; in assay [1], 2100 nM.

For the compound `CCOCCC(=O)N1CCC(c2ccc(NC(=O)C3CN(c4cccnc4C)C3)cc2)CC1` [Example 175, N-{4-[1-(3-ethoxypropanoyl)piperidin-4-yl]phenyl}-1-(2-methylpyridin-3-yl)azetidine-3-carboxamide], the values for the IC50 (at NAMPT; in assay [1]) were 161 nM and 664 nM, respectively.

As to `Cc1ncccc1N1CC(C(=O)Nc2ccc(C3CCN(C(=O)CCC(C)C)CC3)cc2)C1` [Example 176, N-{4-[1-(4-methylpentanoyl)piperidin-4-yl]phenyl}-1-(2-methylpyridin-3-yl)azetidine-3-carboxamide], the IC50 on NAMPT turned out to be 111 nM; in assay [1], 165 nM.

For `Cc1ncccc1N1CC(C(=O)Nc2ccc(C3CCN(C(=O)C4(C)CCCCC4)CC3)cc2)C1` [Example 177, N-(4-{1-[(1-methylcyclohexyl)carbonyl]piperidin-4-yl}phenyl)-1-(2-methylpyridin-3-yl)azetidine-3-carboxamide], the results for the IC50 (on NAMPT; in assay [1]) were 91.3 nM and 60.4 nM, respectively.

Turning to `CC(=O)N1CCC(c2ccc(NC(=O)C3CN(c4cccnc4C)C3)cc2)CC1` [Example 178, N-[4-(1-acetylpiperidin-4-yl)phenyl]-1-(2-methylpyridin-3-yl)azetidine-3-carboxamide], the figures for the IC50 (on NAMPT; in assay [1]) were 65.2 nM and 247 nM, respectively.

Consider `Cc1ncccc1N1CC(C(=O)Nc2ccc(C3CCN(C(=O)CC4CCCCC4)CC3)cc2)C1` [Example 179, N-{4-[1-(cyclohexylacetyl)piperidin-4-yl]phenyl}-1-(2-methylpyridin-3-yl)azetidine-3-carboxamide], for which the IC50 came out at 70.7 nM at NAMPT and 99.2 nM in assay [1].

As for `CC(=O)N[C@@H](CC(C)C)C(=O)N1CCC(c2ccc(NC(=O)C3CN(c4cccnc4C)C3)cc2)CC1` [Example 180, N-{4-[1-(N-acetyl-L-leucyl)piperidin-4-yl]phenyl}-1-(2-methylpyridin-3-yl)azetidine-3-carboxamide], the IC50 at NAMPT stood at 123 nM; in assay [1], 304 nM.

For `CCC(=O)N1CCC(c2ccc(NC(=O)C3CN(c4cccnc4C)C3)cc2)CC1` [Example 181, 1-(2-methylpyridin-3-yl)-N-[4-(1-propanoylpiperidin-4-yl)phenyl]azetidine-3-carboxamide], the results for the IC50 (at NAMPT; in assay [1]) were 128 nM and 284 nM, respectively.

For `Cc1ncccc1N1CC(C(=O)Nc2ccc(C3CCN(C(=O)CC(F)(F)F)CC3)cc2)C1` [Example 182, 1-(2-methylpyridin-3-yl)-N-{4-[1-(3,3,3-trifluoropropanoyl)piperidin-4-yl]phenyl}azetidine-3-carboxamide], the IC50 at NAMPT was 104 nM; in assay [1], 140 nM.

Take `COCCOCC(=O)N1CCC(c2ccc(NC(=O)C3CN(c4cccnc4C)C3)cc2)CC1` [Example 183, N-(4-{1-[(2-methoxyethoxy)acetyl]piperidin-4-yl}phenyl)-1-(2-methylpyridin-3-yl)azetidine-3-carboxamide]: the IC50 at NAMPT amounted to 185 nM; in assay [1] it was 1040 nM.

`Cc1ncccc1N1CC(C(=O)Nc2ccc(C3CCN(C(=O)CCN4CCOCC4)CC3)cc2)C1` [Example 184, 1-(2-methylpyridin-3-yl)-N-(4-{1-[3-(morpholin-4-yl)propanoyl]piperidin-4-yl}phenyl)azetidine-3-carboxamide]: the IC50 on NAMPT is 78.9 nM; in assay [1] it was 625 nM.
